Experimental data reported in patent US5608069A, “1-substituted, 3-carboxylic acid piperidine derivatives” (Novo Nordisk A/S, priority 1993, dated 1997).
Counter-ions that a name gives are not always drawn.

Columns and labels:
[^3 H]-GABA uptake = in vitro inhibition of [^3 H]-GABA uptake (rat cortical tissue homogenate); assay type: biochemical, Male wistar rat; settings: tris HCl buffer pH 7.5, 60 minutes at 30° C.
Procedure: Values for in vitro inhibition of [^3 H]-GABA uptake for the invention compounds were assessed essentially by the method of Fjalland (Acta Pharmacol. Toxicol. 1978, 42, 73-76). Male wistar rat cortical tissue was gently homogenized by hand using a glass/PTFE homogenizer in 10 volumes of 0.32M sucrose. Incubation was performed in a 40 mM tris HCl buffer (pH 7.5 at 30° C.) containing […], 4 mM MgSO4, […] and 10 mM glucose, for 60 minutes at 30° C. Values for inhibition of GABA uptake for some representative compounds are recorded in Table I.

GABA uptake = settings: cited from earlier work; for orally active inhibition of GABA uptake (in words): Yunger, L. M. et al., 1984, Krogsgaard-Larsen, P. et al., 1987, oral
[1] = relatively polar compound; cited from earlier work

Row | IC50 ([^3 H]-GABA uptake) [nM] | SMILES | orally active inhibition of GABA uptake (in words) (GABA uptake) | other results
1 | > 9000 | Cc1ccccc1/C=N/OCCN1CCC[C@@H](C(=O)O)C1 [Example 1, E-(R )-1-(2-((((2-Methylphenyl)methylene)amino)oxy)ethyl)-3-piperidinecarboxylic acid hydrochloride] |  | 
2 | 236 | CC(C)C=C(C=NOCCN1CCC[C@@H](C(=O)O)C1)c1ccccc1 [Example 2] |  | 
3 | 2200 | CCCCCCC/C(=N/OCCN1CCC[C@@H](C(=O)O)C1)c1ccccc1 [Example 3, Z-(R)-1-(2-(((1-Phenyl-1-octanylidene)amino)oxy)ethyl)-3-piperidinecarboxylic acid hydrochloride] |  | 
4 | 1100 | CCCCCCC/C(=N\OCCN1CCC[C@@H](C(=O)O)C1)c1ccccc1 [Example 4, E-(R)-1-(2-(((1-Phenyl-1-octanylidene)amino)oxy)ethyl)-3-piperidinecarboxylic acid hydrochloride] |  | 
5 | 2000 | COC/C(=N\OCCN1CCC[C@@H](C(=O)O)C1)c1ccccc1 [Example 5, Z-(R)-1-(2-(((2-Methoxy-1-phenyl-1-ethylidene)amino)oxy)ethyl)-3-piperidinecarboxylic acid hydrochloride] |  | 
6 | 4500 | O=C(O)[C@@H]1CCCN(CCO/N=C(/c2ccccc2)C(F)(F)F)C1 [Example 6, Z-(R)-1-(2-(((1-Phenyl-2,2,2-trifluoro-1-ethylidene)amino)oxy)ethyl)-3-piperidinecarboxylic acid hydrochloride] |  | 
7 |  | O=C(O)C1CCCN(CCC=C(c2ccccc2)c2ccccc2)C1 (stereo not drawn) [SK&F 89976A, N-(4,4-diphenyl-3-buten-1-yl)nipecotic acid] | orally active inhibitors of GABA uptake | 
8 |  | O=C(O)C1=CCCN(CCC=C(c2ccccc2)c2ccccc2)C1 [SK&F 100330A, N-(4,4-diphenyl-3-buten-1-yl)guvacine] | orally active inhibitors of GABA uptake | 
9 |  | O=C(O)CC1CCN(CCC=C(c2ccccc2)c2ccccc2)C1 (stereo not drawn) [SK&F 100561, N-(4,4-diphenyl-3-buten-1-yl)-homo-β-proline] | orally active inhibitors of GABA uptake | 
10 |  | O=C(O)C1CCCN(CCC=C(c2ccccc2)c2cccs2)C1 (stereo not drawn) [SK&F 100604J, N-(4-phenyl-4-(2-thienyl)-3-buten-1-yl)nipecotic acid] | orally active inhibitors of GABA uptake | 
11 |  | O=C(O)C1CCCNC1 (stereo not drawn) [nipecotic acid, 3-piperidinecarboxylic acid] |  | inhibition of GABA uptake (in words) (GABA uptake; from the synaptic cleft into presynaptic nerve terminals and glial cells): well-known and potent inhibitor of GABA uptake; ability to cross the blood-brain barrier (in words) [1]: unable to cross the blood-brain barrier
